What is called melting point is the temperature, or range, at which the solid turns liquid.

SMILES strings stand for the structures.

`Cc1cccc(-c2n[nH]cc2-c2ccnc(-c3ccc(S(C)(=O)=O)cc3)c2)n1`: the melting point was in the range of 232 to 234 °C.

`Cc1nc(N2CCN(CC3CC3)C2=O)sc1C(=O)NCc1cncc(F)c1` registered a melting point of 144 to 145 °C.

`COC(=O)/C=C/n1cnc2ccc(C(C)C)cc2c1=O` had a melting point of 145 °C.

`OCC1CCC(n2cnc3cc(Cl)c(Cl)cc32)C1` (centres undefined) came in with a melting point of 142 to 145 °C.

Consider `NC(=O)c1cn(-c2ccc(Cl)c(Cl)c2)cn1`, for which the melting point lay within 244 to 245 °C.

`CCN(CC)C(=O)c1ccc(OC)cc1`: the melting point fell in the range of 40 to 42 °C.

For the compound `Cc1ccc2c3c(ccc2n1)OCC(CN1CC=C(c2cc4ccccc4s2)CC1)O3` (centres undefined), the melting point lay in the range of 174 to 176 °C.

As to `CC12CCC3c4cccc(N)c4CCC3C1CCC2O` (centres undefined), the melting point fell in the range of 189 to 192 °C.

`CC(C)C(=O)CNC(=O)c1ccc(F)cc1`: the melting point fell in the range of 107 to 108 °C.

On to `CC(Cn1ccnc1)OCC(O)(P(=O)(O)O)P(=O)(O)O` (centres undefined), for which the melting point is 135 to 140 °C.

`Cc1ccc(S(=O)(=O)c2ccccc2)nc1` had a melting point of 117 to 118 °C.

For `CC1=C(Cc2ncc[nH]2)CCc2ccccc21`, the melting point lay within 209 to 211 °C.

Compound `Cn1ccn(CO)c1=O` gave a melting point of 102 to 104 °C.

`COc1cccc(Oc2ccc(C(=O)O)cc2C(=O)O)c1` displayed a melting point of 232 to 234 °C.

In turn, `CC(=O)c1cc2c(Sc3ccc(C)cc3)cncc2s1` yielded a melting point of 134 to 138 °C.

`COc1cc(OCC(CO)CO)c(C=O)cc1-c1cccs1` displayed a melting point of 144 to 145 °C.

For the compound `N#Cc1nn(-c2c(Cl)cc(C(F)(F)F)cc2Cl)cc1C(=O)C(F)(F)C(F)(F)C(F)(F)F`, the melting point was in the range of 102 to 103 °C.

`COc1ccc(-c2nn(CC=Cc3ccc(F)cc3F)c(=O)cc2-c2ccncc2)cc1` came in with a melting point of 55.4 to 56.9 °C.

Regarding `Cc1ccc(S(=O)(=O)n2ccc(-c3ccc(F)cc3)c2-c2ccc(S(C)(=O)=O)cc2)cc1`, the melting point is 228 to 229 °C.

Consider `Cc1nc2c3c(ccn2c1C)C(=O)CC(c1ccccc1)N3` (centres undefined), for which the melting point lay within 138 to 140 °C.

Consider `CCn1c(=O)c2ccccc2n2cnc(-c3nc(COC)no3)c12`, for which the melting point is 176 °C.

The compound `C=CCN1Cc2nc3c(cnn3C=C)c(N)c2C1=O` yielded a melting point of 190 to 191 °C.

In the case of `CC(=O)NC[C@H]1CN(c2ccc(N3C[C@@H]4C[C@H]3CS4)c(F)c2)C(=O)O1`, the melting point lay within 90 to 95 °C.

In turn, `CC(O)=C(C#N)C(=O)Nc1ccc(OC(F)(F)F)cc1` had a melting point of 171 to 176 °C.

The compound `Cc1ncc(CNC(=O)c2nc3n(c(=O)c2O)CCOC3(C)C)s1` yielded a melting point of 245 °C.

The compound `C#CCCCOC(=O)NC(=O)C(c1ccccc1)c1ccccc1` returned a melting point of 109 °C.

`COc1cccc2cc3c(c(-c4ccc5c(c4)OCO5)c12)CNC3=O` showed a melting point of 295 to 298 °C.

`O=C(O)C1=Cc2cc(OC(F)(F)F)ccc2NC1C(F)(F)F` (centres undefined) gave a melting point of 128 to 129 °C.

`CCOC(=O)C1(Oc2ccc(O)cc2)CCC1` returned a melting point of 118 to 120 °C.

The compound `COc1c(C)cc(C)c(C2CC(=O)C=C(O)C2)c1C` (centres undefined) came in with a melting point of 165 to 166 °C.

Take `COc1ccc(Oc2ccc3c(c2)SC(c2ccc(OC)cc2)C(O)C(=O)N3)cc1` (centres undefined): the melting point lay in the range of 213 to 214 °C.

Regarding `O=C(NCc1ccc(Cl)cc1)c1cnc2c(Cl)cccc2c1O`, the melting point was 279 to 281 °C.

`COC(=O)n1cc(C)c2c(OCc3ccccc3)c(OC)ccc21` displayed a melting point of 124 °C.

Consider `NC(=O)Cn1nccc1-c1ccc(Oc2ccc(F)cc2)cc1`, for which the melting point lay in the range of 168 to 169 °C.

Consider `C#CCOc1cc(-n2c(OC)nc(C(F)(F)F)cc2=O)c(F)cc1Cl`, for which the melting point was in the range of 108 to 110 °C.

Take `O=C(O)c1ccc(Cc2ccc(-c3ccccc3-c3nnn[nH]3)cc2)c2[nH]c(OCC(F)(F)F)nc12`: the melting point lay in the range of 204 to 206 °C.

Compound `N#Cc1ccc(N2CCC(CCO)C2)c2ccsc12` (centres undefined) returned a melting point of 109 to 111 °C.

`CCOc1ccccc1-c1oc2c(C(=O)OCCO)cccc2c(=O)c1C` displayed a melting point of 143 to 144 °C.

Consider `CSc1ccc2ncn(/C=C/C(=O)O)c(=O)c2c1`, for which the melting point lay in the range of 271 to 272 °C.

In turn, `CCCCC(CC)COc1ccc(C=C2C(=O)C3CCN2CC3)cc1` (centres undefined) registered a melting point of 37 °C.

Take `O=[N+]([O-])c1ccc(C=Cc2ccc(N3CCOCCOCCOCCOCCOCC3)cc2)c([N+](=O)[O-])c1`: the melting point lay within 90 to 91 °C.

Compound `O=C(O)COc1ccc(C2=CC(=O)CCC2C2CCCC2)c(Cl)c1Cl` (centres undefined) returned a melting point of 206 to 207 °C.

With `O=[N+]([O-])c1ccc(Cn2c(S(=O)(=O)C(F)(F)C(F)F)nc(-c3ccc(F)cc3)c2-c2ccc(F)cc2)cc1`, the melting point lay within 169 to 170 °C.

`OC(=S)C=Cc1cccc2ccccc12` displayed a melting point of 102 to 103 °C.

On to `CNCC1CN(c2c(F)cc3c(=O)c(C(=O)O)cn(C4CC4)c3c2F)CC1C` (centres undefined), for which the melting point was 252 to 254 °C.

`O=C(O)CN1CCN(CCNC(=O)c2cc3ccc(C4OC(CO)C(O)C(O)C4O)cc3oc2=O)CC1` (centres undefined) registered a melting point of 140 to 143 °C.

In the case of `CC(=O)OC1CSC(Oc2cc(-c3cccnc3)cnc2F)C(OC(C)=O)C1OC(C)=O` (centres undefined), the melting point lay in the range of 67 to 68 °C.

Regarding `CN(CCNC(=O)c1nc(Cl)c(N)nc1N)CCC(=O)NCCN`, the melting point was 140 to 142 °C.

`O=C(O)/C=C(\c1ccccc1)c1ccncc1`: the melting point lay within 239 to 241 °C.

In turn, `O=C(N1CCNc2ccccc2C1)n1ccnc1` registered a melting point of 98 to 101 °C.

For the compound `CCOC(=O)Oc1c(OC)cc(C=CC(=O)Nc2cnc3c(C)cc(C)cc3c2-c2ccccc2Cl)cc1OC`, the melting point was in the range of 228 to 229 °C.

The compound `CCOC(=O)CN1CCC2(CC1)CC(c1ccc(C#N)cc1)=NO2` came in with a melting point of 116 to 118 °C.

On to `O=C1C(=O)c2ccccc2C2=C1SCC1(CCN(CC(O)COCc3ccco3)CC1)O2` (centres undefined), for which the melting point lay in the range of 143 to 145 °C.

Turning to `CC1Cc2c(occ(C=O)c2=O)-c2ccccc21` (centres undefined), the melting point lay in the range of 146 to 148 °C.

Regarding `CCOCC(=O)NC1CCN(C[C@@]23C[C@@H](c4ccccc42)c2ccc(Cl)cc23)CC1`, the melting point was 68 to 70 °C.

`CCCc1nc2c(N)nc3ccccc3c2n1CCCON=C(C)C` showed a melting point of 147 to 150 °C.

Turning to `COC(=O)Cc1ccc2nc(C(F)(F)F)cc(O)c2c1`, the melting point was in the range of 192 to 193 °C.

As to `O=S(c1ccccc1-c1ccccc1)C(F)(F)C(F)(F)C(F)(F)C(F)(F)C(F)(F)C(F)(F)C(F)(F)C(F)(F)F` (centres undefined), the melting point fell in the range of 62 to 63 °C.

The compound `CS(=O)(=O)N(Cc1cccnc1)c1ccccc1OCC(F)(F)F` came in with a melting point of 80 to 84 °C.

`O=C1CC(Cc2ccccc2Cl)CN1` (centres undefined) yielded a melting point of 87 to 89 °C.

In turn, `CCOC(=O)Cn1c2c(c3c(Cl)ccc(Cl)c31)CCN(C(=O)OC(C)(C)C)CC2` gave a melting point of 118 to 120 °C.

As to `CCOC(=O)CCc1cc(CCC(N)=O)cc(Cc2ccc(F)cc2)c1`, the melting point is 69 to 70 °C.

Turning to `Cc1ncncc1NC(=O)Nc1ccc(-n2nc(C(F)(F)F)cc2C2CC2)c(F)c1`, the melting point fell in the range of 198 to 202 °C.

On to `NS(=O)(=O)c1ccc(S(=O)(=O)N2CCC(=O)CC2)cc1`, for which the melting point is 194 to 195 °C.

With `Nc1nc(N2CCCC2)c2ncn([C@@H]3C[C@H](CO)[C@@H](O)C3)c2n1`, the melting point was in the range of 114 to 117 °C.

The compound `COC(=O)c1ccc(NN2C(=O)C(C)=C(C)C2=O)cc1C(=O)Nc1nc(OC)nc(OC)n1` returned a melting point of 123 to 127 °C.

Compound `CCOc1cc(Cc2ccc(Cl)cc2Cl)nc(-c2ccc3c(n2)CCCC3)n1` had a melting point of 98 to 100 °C.

In the case of `C=CCC1(C)OC(=S)Nc2ccc(-c3cccc(Cl)c3)cc21` (centres undefined), the melting point fell in the range of 150 to 151 °C.

`CCn1c2ccccc2n2c(=O)c(C(=O)N3CCOCC3)cnc12` returned a melting point of 200 to 202 °C.

The compound `CNC(=O)c1ccc(-c2ccc(NC(=O)NCc3cccnc3)cc2)nc1N` yielded a melting point of 234 to 236 °C.

In turn, `Cc1ccc(S(=O)(=O)OC(C)COc2c([N+](=O)[O-])ccc(F)c2F)cc1` (centres undefined) registered a melting point of 67 to 69 °C.

`COc1cc2c(Nc3cccc(Cl)c3F)ncnc2cc1OC1CCN(C(=O)C2CCCO2)CC1` (centres undefined): the melting point lay in the range of 193 to 194 °C.

The compound `CCCCOc1ncc(C(C)=O)cc1-c1nc2c(CC)n(C3CCN(C(=O)OC(C)(C)C)CC3)nc2c(=O)[nH]1` registered a melting point of 194 to 195 °C.

For `CC1COc2c(F)c(F)c([N+](=O)[O-])c3c(=O)[nH]c(=O)n1c23` (centres undefined), the melting point fell in the range of 286 to 288 °C.

In turn, `COc1cc(CCNC(=O)C(F)(F)F)ccc1N` had a melting point of 80 to 81 °C.

Regarding `O=C(N[C@H]1CCOC1=O)[C@H](Cc1ccccc1)NS(=O)(=O)c1cccc2ccccc12`, the melting point lay in the range of 93 to 94 °C.

In turn, `COc1ccc(C2(CCCCl)S(=O)CCCS2=O)cc1OC` (centres undefined) showed a melting point of 163 to 164 °C.

In turn, `Cc1cc(C)n(-c2nc(-c3ccc(Cl)cc3)c(CCC(=O)O)o2)n1` returned a melting point of 201 to 202 °C.

Regarding `NC(=O)c1ccnc(NC(=O)N2CCC3(CCc4cc(F)ccc4O3)CC2)c1`, the melting point is 265 to 267 °C.

`CC1(C)CCC(C(=O)COS(=O)(=O)c2ccccc2)CC1` yielded a melting point of 34.5 to 35 °C.

The compound `COCc1nnc2ccc(-c3cccc(C(F)(F)F)c3)nn12` yielded a melting point of 149 to 150 °C.

Regarding `COc1ccc(Cn2c(=O)oc(=O)c3cccnc32)cc1`, the melting point was found to be 160 °C.

`O=C(c1ccc(F)cc1)C1CCN(C(=O)c2ccc([N+](=O)[O-])cc2)CC1`: the melting point lay within 168 to 170 °C.

In the case of `CCOc1cnn(-c2cc(-c3ccnc(Nc4cccc(Cl)c4)n3)ccn2)c(=O)c1Cl`, the melting point lay in the range of 196 to 198 °C.

On to `CCOC(=O)N1C=CC(c2ccc(F)cc2)C(C(=O)OC)=C1` (centres undefined), for which the melting point was in the range of 83 to 85 °C.

`CCC1(CCCCCl)C(=O)Nc2ccc(F)cc21` (centres undefined): the melting point fell in the range of 96 to 97 °C.

In turn, `COc1ccc(C2=NN(C3CCN(C(C)=O)CC3)C(=O)C3CC=CCC23)cc1Cl` (centres undefined) displayed a melting point of 206 to 208 °C.

In turn, `O=C(O)CC1CCC(N2CCN(c3ccncc3)CC2)CC1` (centres undefined) returned a melting point of 225 to 227 °C.

As to `CNCc1ccc2nc(NC(=O)c3ccc(C(C)(C)C)cc3)cn2c1`, the melting point is 204 to 205 °C.

These data come from a melting point compilation (Tetko et al.; mined from patent text by program, amines drawn as free bases though some values may be those of a salt).
